Data reported in US20250255867A1 (Kadmon Corporation, LLC, priority 2022, published 2025).

For CC(C)NC(=O)COc1cccc(-c2nc(Nc3ccc4[nH]ncc4c3)c3ccccc3n2)c1 [Belumosudil, 2-{3-[4-(1H-indazol-5-ylamino)-2-quinazolinyl]phenoxy}-N-(propan-2-yl) acetamide], the “Urinary retention: # Events” value (Cohort 2 200 mg BID) was 2, the “Urinary retention: Affected/At Risk” value (Cohort 2 200 mg BID) was 1/16 and the “Urinary retention: Affected/At Risk (%)” value (Cohort 2 200 mg BID) was “(6.25%)”. The “Urinary tract infection: # Events” value (Cohort 2 200 mg BID) was 2, the “Urinary tract infection: Affected/At Risk” value (Cohort 2 200 mg BID) was 2/16 and the “Urinary tract infection: Affected/At Risk (%)” value (Cohort 2 200 mg BID) was “(12.5%)”. The “Urinary tract pain: # Events” value (Cohort 2 200 mg BID) was 1, the “Urinary tract pain: Affected/At Risk” value (Cohort 2 200 mg BID) was 1/16 and the “Urinary tract pain: Affected/At Risk (%)” value (Cohort 2 200 mg BID) was “(6.25%)”. The “Urine output decreased: # Events” value (Cohort 2 200 mg BID) was 1, the “Urine output decreased: Affected/At Risk” value (Cohort 2 200 mg BID) was 1/16 and the “Urine output decreased: Affected/At Risk (%)” value (Cohort 2 200 mg BID) was “(6.25%)”. The “Vascular access complication: # Events” value (Cohort 2 200 mg BID) was 1, the “Vascular access complication: Affected/At Risk” value (Cohort 2 200 mg BID) was 1/16 and the “Vascular access complication: Affected/At Risk (%)” value (Cohort 2 200 mg BID) was “(6.25%)”. For the same compound, the “Vertigo: # Events” value (Cohort 2 200 mg BID) was 0, the “Vertigo: Affected/At Risk” value (Cohort 2 200 mg BID) was 0/16 and the “Vertigo: Affected/At Risk (%)” value (Cohort 2 200 mg BID) was “(0%)”. The “Vision blurred: # Events” value (Cohort 2 200 mg BID) was 2, the “Vision blurred: Affected/At Risk” value (Cohort 2 200 mg BID) was 2/16 and the “Vision blurred: Affected/At Risk (%)” value (Cohort 2 200 mg BID) was “(12.5%)”. For the same compound, the “Vomiting: # Events” value (Cohort 2 200 mg BID) was 3, the “Vomiting: Affected/At Risk” value (Cohort 2 200 mg BID) was 3/16 and the “Vomiting: Affected/At Risk (%)” value (Cohort 2 200 mg BID) was “(18.75%)”. The “Weight decreased: # Events” value (Cohort 2 200 mg BID) was 0, the “Weight decreased: Affected/At Risk” value (Cohort 2 200 mg BID) was 0/16 and the “Weight decreased: Affected/At Risk (%)” value (Cohort 2 200 mg BID) was “(0%)”. The “Weight increased: # Events” value (Cohort 2 200 mg BID) was 2, the “Weight increased: Affected/At Risk” value (Cohort 2 200 mg BID) was 1/16 and the “Weight increased: Affected/At Risk (%)” value (Cohort 2 200 mg BID) was “(6.25%)”. For the same compound, the “White blood cell count decreased: # Events” value (Cohort 2 200 mg BID) was 0, the “White blood cell count decreased: Affected/At Risk” value (Cohort 2 200 mg BID) was 0/16 and the “White blood cell count decreased: Affected/At Risk (%)” value (Cohort 2 200 mg BID) was “(0%)”. The “ALT/AST increased all grade, No.” value (Cohort 2 200 mg BID n=16) was 5, the “ALT/AST increased grade ≥3, No.” value (Cohort 2 200 mg BID n=16) was 2 and the “Anemia grade ≥3, No.” value (Cohort 2 200 mg BID n=16) was 1. For the same compound, the “Any AE, No. of patients” value (Cohort 2 200 mg BID n=16) was 16, the “Cough all grade, No.” value (Cohort 2 200 mg BID n=16) was 4 and the “Death, No.” value (Cohort 2 200 mg BID n=16) was 0. For the same compound, the “Diarrhea all grade, No.” value (Cohort 2 200 mg BID n=16) was 5, the “Drug-related AE, No.” value (Cohort 2 200 mg BID n=16) was 8 and the “Drug-related SAE, No.” value (Cohort 2 200 mg BID n=16) was 0. The “Dyspnea all grade, No.” value (Cohort 2 200 mg BID n=16) was 6, the “Dyspnea grade ≥3, No.” value (Cohort 2 200 mg BID n=16) was 2 and the “Fatigue all grade, No.” value (Cohort 2 200 mg BID n=16) was 3. The “Grade ≥3 AE, No.” value (Cohort 2 200 mg BID n=16) was 10, the “Headache all grade, No.” value (Cohort 2 200 mg BID n=16) was 3 and the “Hyperglycemia grade ≥3, No.” value (Cohort 2 200 mg BID n=16) was 0. For the same compound, the “Hypertension all grade, No.” value (Cohort 2 200 mg BID n=16) was 2, the “Hypoxia grade ≥3, No.” value (Cohort 2 200 mg BID n=16) was 1 and the “Lung infection or pneumonia grade ≥3, No.” value (Cohort 2 200 mg BID n=16) was 2. For the same compound, the “Nausea all grade, No.” value (Cohort 2 200 mg BID n=16) was 4, the “Peripheral edema all grade, No.” value (Cohort 2 200 mg BID n=16) was 4 and the “SAE, No.” value (Cohort 2 200 mg BID n=16) was 6. The “URI all grade, No.” value (Cohort 2 200 mg BID n=16) was 9, the “Patients with relative dose intensity >95%” value (Cohort 3) was 71% and the “Abdominal distension: # Events” value (Cohort 3 400 mg QD) was 1. For the same compound, the “Abdominal distension: Affected/At Risk” value (Cohort 3 400 mg QD) was 1/21, the “Abdominal distension: Affected/At Risk (%)” value (Cohort 3 400 mg QD) was “(4.76%)” and the “Abdominal pain upper: # Events” value (Cohort 3 400 mg QD) was 0. For the same compound, the “Abdominal pain upper: Affected/At Risk” value (Cohort 3 400 mg QD) was 0/21, the “Abdominal pain upper: Affected/At Risk (%)” value (Cohort 3 400 mg QD) was “(0%)” and the “Abdominal pain: # Events” value (Cohort 3 400 mg QD) was 6. For the same compound, the “Abdominal pain: Affected/At Risk” value (Cohort 3 400 mg QD) was 4/21, the “Abdominal pain: Affected/At Risk (%)” value (Cohort 3 400 mg QD) was “(19.05%)” and the “Actinic keratosis: # Events” value (Cohort 3 400 mg QD) was 1. For the same compound, the “Actinic keratosis: Affected/At Risk” value (Cohort 3 400 mg QD) was 1/21, the “Actinic keratosis: Affected/At Risk (%)” value (Cohort 3 400 mg QD) was “(4.76%)” and the “Acute kidney injury: # Events” value (Cohort 3 400 mg QD) was 6. The “Acute kidney injury: Affected/At Risk” value (Cohort 3 400 mg QD) was 2/21, the “Acute kidney injury: Affected/At Risk (%)” value (Cohort 3 400 mg QD) was “(9.52%)” and the “Acute respiratory distress syndrome: # Events” value (Cohort 3 400 mg QD) was 0. The “Acute respiratory distress syndrome: Affected/At Risk” value (Cohort 3 400 mg QD) was 0/21, the “Acute respiratory distress syndrome: Affected/At Risk (%)” value (Cohort 3 400 mg QD) was “(0%)” and the “Adrenal insufficiency: # Events” value (Cohort 3 400 mg QD) was 0. The “Adrenal insufficiency: Affected/At Risk” value (Cohort 3 400 mg QD) was 0/21, the “Adrenal insufficiency: Affected/At Risk (%)” value (Cohort 3 400 mg QD) was “(0%)” and the “Alanine aminotransferase increased: # Events” value (Cohort 3 400 mg QD) was 2. For the same compound, the “Alanine aminotransferase increased: Affected/At Risk” value (Cohort 3 400 mg QD) was 2/21, the “Alanine aminotransferase increased: Affected/At Risk (%)” value (Cohort 3 400 mg QD) was “(9.52%)” and the “Anaemia: # Events” value (Cohort 3 400 mg QD) was 0. For the same compound, the “Anaemia: Affected/At Risk” value (Cohort 3 400 mg QD) was 0/21, the “Anaemia: Affected/At Risk (%)” value (Cohort 3 400 mg QD) was “(0%)” and the “Anal incontinence: # Events” value (Cohort 3 400 mg QD) was 0. For the same compound, the “Anal incontinence: Affected/At Risk” value (Cohort 3 400 mg QD) was 0/21, the “Anal incontinence: Affected/At Risk (%)” value (Cohort 3 400 mg QD) was “(0%)” and the “Anxiety: # Events” value (Cohort 3 400 mg QD) was 3. For the same compound, the “Anxiety: Affected/At Risk” value (Cohort 3 400 mg QD) was 3/21, the “Anxiety: Affected/At Risk (%)” value (Cohort 3 400 mg QD) was “(14.29%)” and the “Arthralgia: # Events” value (Cohort 3 400 mg QD) was 6. For the same compound, the “Arthralgia: Affected/At Risk” value (Cohort 3 400 mg QD) was 5/21, the “Arthralgia: Affected/At Risk (%)” value (Cohort 3 400 mg QD) was “(23.81%)” and the “Aspartate aminotransferase increased: # Events” value (Cohort 3 400 mg QD) was 1. The “Aspartate aminotransferase increased: Affected/At Risk” value (Cohort 3 400 mg QD) was 1/21, the “Aspartate aminotransferase increased: Affected/At Risk (%)” value (Cohort 3 400 mg QD) was “(4.76%)” and the “Asthenia: # Events” value (Cohort 3 400 mg QD) was 0. The “Asthenia: Affected/At Risk” value (Cohort 3 400 mg QD) was 0/21, the “Asthenia: Affected/At Risk (%)” value (Cohort 3 400 mg QD) was “(0%)” and the “Atelectasis: # Events” value (Cohort 3 400 mg QD) was 0. For the same compound, the “Atelectasis: Affected/At Risk” value (Cohort 3 400 mg QD) was 0/21, the “Atelectasis: Affected/At Risk (%)” value (Cohort 3 400 mg QD) was “(0%)” and the “Back pain: # Events” value (Cohort 3 400 mg QD) was 1. The “Back pain: Affected/At Risk” value (Cohort 3 400 mg QD) was 1/21, the “Back pain: Affected/At Risk (%)” value (Cohort 3 400 mg QD) was “(4.76%)” and the “Balance disorder: # Events” value (Cohort 3 400 mg QD) was 0. The “Balance disorder: Affected/At Risk” value (Cohort 3 400 mg QD) was 0/21, the “Balance disorder: Affected/At Risk (%)” value (Cohort 3 400 mg QD) was “(0%)” and the “Basal cell carcinoma: # Events” value (Cohort 3 400 mg QD) was 0. The “Basal cell carcinoma: Affected/At Risk” value (Cohort 3 400 mg QD) was 0/21, the “Basal cell carcinoma: Affected/At Risk (%)” value (Cohort 3 400 mg QD) was “(0%)” and the “Benign prostatic hyperplasia: # Events” value (Cohort 3 400 mg QD) was 0. The “Benign prostatic hyperplasia: Affected/At Risk” value (Cohort 3 400 mg QD) was 0/21, the “Benign prostatic hyperplasia: Affected/At Risk (%)” value (Cohort 3 400 mg QD) was “(0%)” and the “Blepharitis: # Events” value (Cohort 3 400 mg QD) was 2. For the same compound, the “Blepharitis: Affected/At Risk” value (Cohort 3 400 mg QD) was 1/21, the “Blepharitis: Affected/At Risk (%)” value (Cohort 3 400 mg QD) was “(4.76%)” and the “Blister: # Events” value (Cohort 3 400 mg QD) was 1. For the same compound, the “Blister: Affected/At Risk” value (Cohort 3 400 mg QD) was 1/21, the “Blister: Affected/At Risk (%)” value (Cohort 3 400 mg QD) was “(4.76%)” and the “Blood alkaline phosphatase increased: # Events” value (Cohort 3 400 mg QD) was 0. For the same compound, the “Blood alkaline phosphatase increased: Affected/At Risk” value (Cohort 3 400 mg QD) was 0/21, the “Blood alkaline phosphatase increased: Affected/At Risk (%)” value (Cohort 3 400 mg QD) was “(0%)” and the “Blood chloride decreased: # Events” value (Cohort 3 400 mg QD) was 0. The “Blood chloride decreased: Affected/At Risk” value (Cohort 3 400 mg QD) was 0/21, the “Blood chloride decreased: Affected/At Risk (%)” value (Cohort 3 400 mg QD) was “(0%)” and the “Blood cholesterol increased: # Events” value (Cohort 3 400 mg QD) was 1. The “Blood cholesterol increased: Affected/At Risk” value (Cohort 3 400 mg QD) was 1/21, the “Blood cholesterol increased: Affected/At Risk (%)” value (Cohort 3 400 mg QD) was “(4.76%)” and the “Blood creatine increased: # Events” value (Cohort 3 400 mg QD) was 0. For the same compound, the “Blood creatine increased: Affected/At Risk” value (Cohort 3 400 mg QD) was 0/21, the “Blood creatine increased: Affected/At Risk (%)” value (Cohort 3 400 mg QD) was “(0%)” and the “Blood creatine phosphokinase increased: # Events” value (Cohort 3 400 mg QD) was 0. The “Blood creatine phosphokinase increased: Affected/At Risk” value (Cohort 3 400 mg QD) was 0/21, the “Blood creatine phosphokinase increased: Affected/At Risk (%)” value (Cohort 3 400 mg QD) was “(0%)” and the “Blood creatinine increased: # Events” value (Cohort 3 400 mg QD) was 2. For the same compound, the “Blood creatinine increased: Affected/At Risk” value (Cohort 3 400 mg QD) was 2/21 and the “Blood creatinine increased: Affected/At Risk (%)” value (Cohort 3 400 mg QD) was “(9.52%)”.
